Test results published in patent US20100048732A1, “Method of mediating Airway Smooth Muscle Construction Due to Airway Irritation” (priority 2006, published 2010).
Starred links: 1 amine or outer side, 2 acyl side, 3 side chain; linkers in the order of their positions; H or OH if unused. Positions of bridges follow the written chain, without caps; N, C: chain ends. Non-standard residues stand in square brackets, D forms with d. Residues, ends and D or L forms follow the SMILES beside them. No end group written: not given here. *: point of attachment. X2 = CN(/C(=C\c1ccc(O)cc1)C(=O)[*:2])[*:1]; X1 = CCCCCc1ccccc1CCC(=O)*

Tests used:
GABAA receptors = conditions: FIG. 10
Experimental: (§1) (FIG. 9.) To determine if the mechanism of propofol's relaxation of a tachykinin response was mediated by GABAA receptors, the ability of an antagonist of GABAA receptors should inhibit propofol's response was evaluated. […] (FIG. 10.)

[1] = tested on: substance P contraction, human tracheal rings; assay: Substance P contraction of human tracheal rings in organ baths and its relaxation; assay type: cell-based; conditions: human tracheal rings in organ baths; for relaxation of substance P contraction in human tracheal rings: cumulative concentrations, FIG. 5, FIG. 9
Experimental: as §1

guinea pig airway rings = conditions: cited from earlier work
[2] = tested on: substance P contraction, guinea pig tracheal rings; assay: Relaxation of substance P-induced contraction in guinea pig tracheal rings; assay type: cell-based; conditions: FIG. 2, FIG. 3E-F, FIG. 8
Experimental: (§2) Substance P is an endogenous tachykinin released in airways by C fibers during irritation of the airway.
(§3) Propofol is known to have preferential protective airway effects during intubation compared to other intravenous anesthetics (3, 4). To determine if two other commonly used intravenous anesthetics have similar protective airway effects on contractile challenges, etomidate and ketamine were evaluated to determine their ability to relax airway smooth muscle contraction induced by NANC nerve stimulation (FIGS. 3A and B), cholinergic nerve stimulation (FIGS. 3C and D), and exogenous addition of substance P (FIGS. 3E and F) to isolated guinea pig tracheal rings in organ baths.
Propofol's effect as an anesthetic is modulated by an allosteric potentiation of GABA at GABAA receptors in the brain. However, we are unaware of any report that GABAA receptors have been found on airway smooth muscle.

[3] = tested on: cholinergic nerve mediated contractions, guinea pig tracheal rings; assay: Relaxation of cholinergic nerve mediated contractions in guinea pig tracheal rings; assay type: cell-based; conditions: clinically relevant concentrations, FIG. 1, FIG. 3C-D
Experimental: To distinguish between the two possibilities, intravenous anesthetics were evaluated for their effects on attenuating bronchoconstriction induced by activation of the cholinergic nerves (liberating acetylcholine). […] (FIG. 1.)
as §3

[4] = tested on: NANC contractions, epithelium-denuded guinea pig tracheal rings; assay: Relaxation of NANC (C fiber, neurally liberated tachykinin) contractions in guinea pig tracheal rings; assay type: cell-based; conditions: clinically relevant concentrations, FIG. 2, FIG. 3A-B
Experimental: as §2, §3

[5] = tested on: bradykinin induced bronchoconstriction; conditions: asthmatics; cited from earlier work
[6] = tested on: endothelin-1 induced contractions, guinea pig tracheal rings; conditions: within clinically relevant concentrations, FIG. 4
Experimental: (§5) To determine if propofol and thiopental have the ability to relax histamine or endothelial induced contractions, propofol and thiopental were evaluated at clinical and supra-clinical concentrations to determine their ability to relax histamine or endothelin-1 induced contractions in guinea pig tracheal rings.

[7] = tested on: acetylcholine-induced contractions, isolated rings of guinea pig trachea; conditions: isolated guinea pig tracheal rings; clinically significant/relevant concentrations; FIG. 1
Text: Intravenous anesthetics were compared for their ability to relax airway smooth muscle contractions in isolated rings of guinea pig trachea in response to acetylcholine.

[8] = tested on: NK2-induced contraction, guinea pig tracheal rings; conditions: guinea pig tracheal rings stimulated with neurokinin A; FIG. 6B
Text: (§4) Guinea pig tracheal rings stimulated with acetyl-substance P to produce an NK1-induced contraction (FIG. 6A) and with neurokinin A to produce an NK2-induced contraction (FIG. 6B).

[9] = tested on: NK1-induced contraction, guinea pig tracheal rings; conditions: guinea pig tracheal rings stimulated with acetyl-substance P; FIG. 6A
Text: as §4

[10] = tested on: methacholine, histamine-induced (neural component) or vagal nerve-induced bronchoconstriction; conditions: neural component of histamine-induced, or vagal nerve-induced bronchoconstriction; cited from earlier work
[11] = tested on: permeabilized canine tracheal smooth muscle cells; conditions: absence or presence of muscarinic receptor activation, propofol 270 μM; cited from earlier work
[12] = tested on: vagal nerve induced bronchospasm; conditions: sheep; delivery via the bronchial artery; cited from earlier work
[13] = tested on: L-type calcium channels, intracellular calcium changes, inositol phosphate synthesis in airway smooth muscle; conditions: above clinically achieved concentrations; cited from earlier work
[14] = tested on: methacholine induced bronchoconstriction; conditions: sheep; delivery via the bronchial artery; cited from earlier work
[15] = tested on: contractile responses from acetylcholine, histamine, and endothelin in airway tissues; conditions: airway tissues from humans and animal models; cited from earlier work
[16] = tested on: histamine induced contractions, guinea pig tracheal rings; conditions: within clinically relevant concentrations, FIG. 4
Experimental: as §5

Compound: COc1ccc(-c2ccc(=N)n(CCCC(=O)O)n2)cc1 [Gabazine]
- reversal of propofol mediated relaxation of a substance P contraction (GABAA receptors): able to reverse propofol mediated relaxation

Compound: NCc1cc(=O)[nH]o1 [muscimol]
- relaxation of substance P contraction in human tracheal rings [1]: dose dependently relaxed
- effect on acetylcholine-induced contraction (guinea pig airway rings): failed to show an effect
- effect on basal tone (guinea pig airway rings): failed to show an effect
- attenuation/relaxation of substance P (exogenous tachykinin) contraction [2]: dose-dependently relaxed

Compound: CNC1(c2ccccc2Cl)CCCCC1=O (stereo not shown) [ketamine]
- relaxation of cholinergic nerve mediated contractions [3]: failed to relax
- attenuation/relaxation of NANC contractions (neurally liberated tachykinins) [4]: failed to relax
- attenuation/relaxation of substance P (exogenous tachykinin) contraction [2]: failed to relax

Compound: CCCCCc1ccccc1CCC(=O)NC1C(=O)N(C)/C(=C\c2ccc(O)cc2)C(=O)NC(CC(C)C)C(=O)NC(Cc2ccccc2)C(=O)NC(C(C)O)C(=O)NC(CC(N)=O)C(=O)NC(CO)C(=O)OC1C (stereo not shown) [FK224] (X1-T[X2]LFTNS; ester 1-C; configuration not given here)
- effect on bradykinin induced bronchoconstriction [5]: attenuated bradykinin induced bronchoconstriction

Compound: CCOC(=O)c1cncn1[C@H](C)c1ccccc1 [etomidate]
- relaxation of cholinergic nerve mediated contractions [3]: failed to relax
- attenuation/relaxation of NANC contractions (neurally liberated tachykinins) [4]: failed to relax
- attenuation/relaxation of substance P (exogenous tachykinin) contraction [2]: failed to relax

Compound: CC(C)c1cccc(C(C)C)c1O [propofol, 2,6-diisopropylphenol]
- relaxation of endothelin-1 induced contraction [6]: neither anesthetic effected the spontaneous relaxation
- relaxation of substance P contraction in human tracheal rings [1]: dose-dependently relaxed
- relaxation of acetylcholine-induced contractions [7]: without effect
- relaxation of NK2-induced contraction [8]: significantly relaxed
- relaxation of NK1-induced contraction [9]: much less effective
- propofol concentration attenuating bronchoconstriction in dogs [10]: 20 mg/mL
- calcium sensitivity [11]: not effected
- propofol dose attenuating vagal nerve induced bronchospasm [12]: 0.3 mg/min
- propofol concentration needed for effects on L-type calcium channels, intracellular calcium or inositol phosphate signaling [13]: > 100 µM
- propofol dose attenuating methacholine induced bronchoconstriction [14]: 3 mg/min
- propofol concentration attenuating contractile responses from acetylcholine, histamine, endothelin [15]: 100 to 300 µM
- relaxation of cholinergic nerve mediated contractions [3]: failed to relax
- relaxation of histamine induced contraction [16]: neither anesthetic effected the spontaneous relaxation
- attenuation/relaxation of NANC contractions (neurally liberated tachykinins) [4]: more effective than thiopental
- attenuation/relaxation of substance P (exogenous tachykinin) contraction [2]: more effective than thiopental

Compound: CCCC(C)C1(CC)C(=O)NC(=S)NC1=O (stereo not shown) [thiopental]
- relaxation of endothelin-1 induced contraction [6]: neither anesthetic effected the spontaneous relaxation
- relaxation of acetylcholine-induced contractions [7]: dose-dependently relaxed
- relaxation of histamine induced contraction [16]: neither anesthetic effected the spontaneous relaxation

Compound: Substance P (RPKPQQFFGLM-NH2; ends and bridges not checked; UniProt P20366 58-68, looked up) [endogenous tachykinin released in airways by C fibers during irritation of the airway]
- contraction of human tracheal rings ([1]; FIG. 5): dose-dependently contracted
